Results as given in patent publication US11976054B2, “Amide derivative and preparation method therefore and use thereof in medicine” (Chengdu Baiyu Pharmaceutical Co., Ltd., priority 2019, dated 2024).

Columns and labels:
[1] = system: Human monocyte cell line THP-1; assay: Detection of THP-1 cell pyroptosis (Caspase-Glo 1 Inflammasome Assay); assay type: cell-based; details: THP-1 pyroptosis, 20 nM PMA 48 h, 1 μg/mL LPS, compound 3 h
Method: Human monocyte cell line THP-1 (ATCC® TB-202TM) was cultured in RPMI-1640 culture medium containing […], 1 mM pyruvic acid, 0.05 mM β-mercaptoethanol and 10% double antibody under the culture conditions of 37° C. and […].
Cell counting was performed, THP-1 cells were seeded into a 96-well plate at 50000 per well, and 20 nM PMA was added for inducing at 37° C./5% CO2 for 48 h. The culture medium was then discarded, and 100 μL of serum-free RPMI-1640 medium containing 1 μg/mL LPS was added. 5 μL of compound or solvent control was added and 3-fold diluted in gradient from a maximum concentration of 10 μM, and 10 gradient concentrations were set. The mixtures were incubated at 37° C./5% CO2 for 3 h. After the incubation, the mixtures were centrifuged at 300 g for 5 min, and the culture medium was discarded. Pyroptosis assay was performed according to specific steps described in instructions of Caspase-Glo® 1 Inflammasome Assay kit. IC50 was calculated using GraphPad Prism7.0 software.

[2] = Pharmacokinetic analysis of compounds in rats; assay type: in vivo, SD rats; details: SD, rat, in vivo
Method: Healthy adult SD rats weighing 180-220 g were fasted (free access to water) overnight and divided into tail vein administration group and intragastric administration group. The tail vein administration group was subjected to blood collection of 0.1 mL from orbital venous plexus before the administration and 5 min, 15 min, 0.5 h, 1 h, 2 h, 4 h, 8 h, 12 h and 24 h after the administration, and plasma was separated out by centrifugation at 4° C. for 5 min and stored at −20° C. for test. The intragastric administration group was subjected to blood collection of 0.1 mL from orbital venous plexus before the administration and 5 min, 15 min, 0.5 h, 1 h, 2 h, 4 h, 8 h, 12 h and 24 h after the administration, and the subsequent treatment procedures were the same as those of the tail vein injection group. The concentration of parent drug in the plasma was determined by LC-MS/MS.

SMILES	IC50 [1]	further results
C[C@@H](c1ccc2c(c1NC(=O)NS(=N)(=O)c1cc(C(C)(C)O)co1)CC2)C1CC1 (mixture of isomers) [Compound 38-2, RS- and SS-N-((3-((R)-1-cyclopropylethyl)bicyclo[4.2.0]octa-1(6),2,4-trien-2-yl)carbamoyl)-4-(2-hydroxypropan-2-yl)furan-2-sulfonimidamide]	1000 to 5000 nM	
CC(c1ccc2c(c1NC(=O)NS(=N)(=O)c1cnc(C(C)(C)O)s1)CCC2)C1CC1 (racemic) [Compound 20-2, (RS, SC)- and (SS, SC)-N-((5-(1-cyclopropylethyl)-2,3-dihydro-1H-inden-4-yl)carbamoyl)-2-(2-hydroxypropan-2-yl)thiazole-5-sulfonimidamide]	100 to 500 nM	
Cc1oc(S(=N)(=O)NC(=O)Nc2c(C(C)C3CC3)ccc3c2CCC3)cc1C(C)(C)O (racemic) [Compound 25-1, (RS, SC)- and (SS, SC)-N-((5-(1-cyclopropylethyl)-2,3-dihydro-1H-inden-4-yl)carbamoyl)-4-(2-hydroxypropan-2-yl)-5-methylfuran-2-sulfonimidamide]	≤ 100 nM	
Cc1oc(S(=N)(=O)NC(=O)Nc2c(C(C)C3CC3)ccc3c2CCC3)cc1C(C)(C)O (racemic) [Compound 25-2, (RS, SC)- and (SS, SC)-N-((5-(1-cyclopropylethyl)-2,3-dihydro-1H-inden-4-yl)carbamoyl)-4-(2-hydroxypropan-2-yl)-5-methylfuran-2-sulfonimidamide]	100 to 500 nM	
CC(c1ccc2c(c1NC(=O)NS(=N)(=O)c1cc(C(C)(C)O)co1)CC2)C1CC1 (racemic) [Compound 36-2, (RS, SC)- and (SS, SC)-N-((3-(1-cyclopropylethyl)bicyclo[4.2.0]octa-1(6),2,4-trien-2-yl)carbamoyl)-4-(2-hydroxypropan-2-yl)furan-2-sulfonimidamide]	1000 to 5000 nM	
CC(c1cc(C#N)c2c(c1NC(=O)NS(=N)(=O)c1cc(C(C)(C)O)co1)CCC2)C1CC1 (racemic) [Compound 46-1, (RS, RC)- and (SS, RC)-N-((7-cyano-5-(1-cyclopropylethyl)-2,3-dihydro-1H-inden-4-yl)carbamoyl)-4-(2-hydroxypropan-2-yl)furan-2-sulfonimidamide]	100 to 500 nM	
CC(c1cc(C#N)c2c(c1NC(=O)NS(=N)(=O)c1cc(C(C)(C)O)co1)CCC2)C1CC1 (racemic) [Compound 46-2, (RS, RC)- and (SS, RC)-N-((7-cyano-5-(1-cyclopropylethyl)-2,3-dihydro-1H-inden-4-yl)carbamoyl)-4-(2-hydroxypropan-2-yl)furan-2-sulfonimidamide]	100 to 500 nM	
CC(c1cc(C#N)c2c(c1NC(=O)NS(=N)(=O)c1cc(C(C)(C)O)co1)CCC2)C1CC1 (racemic) [Compound 48-1, (RS, SC)- and (SS, SC)-N-((7-cyano-5-(1-cyclopropylethyl)-2,3-dihydro-1H-inden-4-yl)carbamoyl)-4-(2-hydroxypropan-2-yl)furan-2-sulfonimidamide]	100 to 500 nM	
CC(c1cc(C#N)c2c(c1NC(=O)NS(=N)(=O)c1cc(C(C)(C)O)co1)CCC2)C1CC1 (racemic) [Compound 48-2, (RS, SC)- and (SS, SC)-N-((7-cyano-5-(1-cyclopropylethyl)-2,3-dihydro-1H-inden-4-yl)carbamoyl)-4-(2-hydroxypropan-2-yl)furan-2-sulfonimidamide]	1000 to 5000 nM	
CC(c1ccc2c(c1NC(=O)NS(=N)(=O)c1ccc(C(C)(C)O)s1)CCC2)C1CC1 (racemic) [Compound 51-2, (RS, SC)- and (SS, SC)-N-((5-(1-cyclopropylethyl)-2,3-dihydro-1H-inden-4-yl)carbamoyl)-5-(2-hydroxypropan-2-yl)thiophene-2-sulfonimidamide]	5000 to 10000 nM	
CC(c1ccc2c(c1NC(=O)NS(=N)(=O)c1cc(C(C)(C)O)co1)CCC2)C1CC1 (racemic) [Compound 52-1, (RS, SC)- and (SS, SC)-N-((5-(1-cyclopropylethyl)-2,3-dihydro-1H-inden-4-yl)carbamoyl)-4-(2-hydroxypropan-2-yl)furan-2-sulfonimidamide]	1000 to 5000 nM	
CC(C)(O)c1ccc(S(=N)(=O)NC(=O)Nc2c(CC3CCC3)ccc3c2CCC3)s1 (racemic) [Compound 53-2, (RS)- and (SS)-N-((5-(cyclobutylmethyl)-2,3-dihydro-1H-inden-4-yl)carbamoyl)-5-(2-hydroxypropan-2-yl)thiophene-2-sulfonimidamide]	100 to 500 nM	
CC(C)c1cccc([C@@H](C)C2CC2)c1NC(=O)NS(=N)(=O)c1cc(C(C)(C)O)co1 (mixture of isomers) [Compound 73-1, (RS, SC) and (SS, SC)-N-((2-(1-cyclopropylethyl)-6-isopropylphenyl)carbamoyl)-4-(2-hydroxypropan-2-yl)furan-2-sulfonimidamide]	≤ 100 nM	
CC(C)c1cccc([C@@H](C)C2CC2)c1NC(=O)NS(=N)(=O)c1cc(C(C)(C)O)co1 (mixture of isomers) [Compound 73-2, (RS, SC) and (SS, SC)-N-((2-(1-cyclopropylethyl)-6-isopropylphenyl)carbamoyl)-4-(2-hydroxypropan-2-yl)furan-2-sulfonimidamide]	1000 to 5000 nM	
CC(C)c1cccc(C(C)C2CC2)c1NC(=O)NS(=N)(=O)c1cc(C(C)(C)O)co1 (racemic) [Compound 74-1, (RS, RC)- and (SS, RC)-N-((2-(1-cyclopropylethyl)-6-isopropylphenyl)carbamoyl)-4-(2-hydroxypropan-2-yl)furan-2-sulfonimidamide]	≤ 100 nM	
CC(C)c1cccc(C(C)C2CC2)c1NC(=O)NS(=N)(=O)c1cc(C(C)(C)O)co1 (racemic) [Compound 74-2, (RS, RC)- and (SS, RC)-N-((2-(1-cyclopropylethyl)-6-isopropylphenyl)carbamoyl)-4-(2-hydroxypropan-2-yl)furan-2-sulfonimidamide]	1000 to 5000 nM	
C[C@@H](c1ccc2c(c1NC(=O)NS(=N)(=O)c1cc(C(C)(C)O)co1)CCC2)C1CCC1 (mixture of isomers) [Compound 80-1, (RS)- and (SS)-N-((5-((R)-1-cyclobutylethyl)-2,3-dihydro-1H-inden-4-yl)carbamoyl)-4-(2-hydroxypropan-2-yl)furan-2-sulfonimidamide]	100 to 500 nM	
CC(C)(O)c1ncc(S(=N)(=O)NC(=O)Nc2c(CC3CCC3)ccc3c2CCC3)s1 (single isomer, unassigned) [Compound 19-1, RS- and SS-N-((5-(cyclobutylmethyl)-2,3-dihydro-1H-inden-4-yl)carbamoyl)-2-(2-hydroxypropan-2-yl)thiazole-5-sulfonimidamide]	1000 to 5000 nM	
CC(C)(O)c1ncc(S(=N)(=O)NC(=O)Nc2c(CC3CCC3)ccc3c2CCC3)s1 (single isomer, unassigned) [Compound 19-2, RS- and SS-N-((5-(cyclobutylmethyl)-2,3-dihydro-1H-inden-4-yl)carbamoyl)-2-(2-hydroxypropan-2-yl)thiazole-5-sulfonimidamide]	100 to 500 nM	
CC(C)(O)c1coc(S(=O)(=O)NC(=O)Nc2c3c(cc4c2CCC4)CCC3)c1 [Control 3, 1-(1,2,3,5,6,7-hexahydro-s-indacen-4-yl)-3-[4-(1-hydroxy-1-methyl-ethyl)-furan-2-sulfonyl]urea, reference compound]		AUC ([2]; iv, 1 mg/kg): 1400 ng·h/mL; Vd ([2]; iv, 1 mg/kg): 0.402 L/kg; clearance ([2]; iv, 1 mg/kg): 14.2 mL/min/kg; half-life ([2]; iv, 1 mg/kg): 0.46 h; bioavailability ([2]; po): 36.4%; AUC ([2]; po, 10 mg/kg): 5080 ng·h/mL; Cmax ([2]; po, 10 mg/kg): 1930 ng/mL; half-life ([2]; po, 10 mg/kg): 2.1 h
